Data: ChEMBL document CHEMBL5390231, “Development of small molecule inhibitors targeting RNA helicase DHX33 as anti-cancer agents” (Bioorg Med Chem Lett, 2023)
The source made the active and inactive calls. The rule behind the calls is not given here.

Key:
[1] = system: U-251; experiment: Antiproliferative activity against human U-251MG cells overexpressing DHX33 assessed as inhibition of cell growth measured after 48 hrs by CCK-8 assay; format: functional, cell-based; details: U-251, 48 h
[2] = system: A549; experiment: Downregulation of MCM2 mRNA expression in human A549 cells by SYBR dye based RT-PCR analysis; format: functional, cell-based
[3] = biological target: T1, Probable ATP-dependent RNA helicase DDX59 (Homo sapiens, UniProt Q5T1V6); experiment: Inhibition of C-terminal 6xHis-tagged human recombinant DDX59 transformed in Escherichia coli BL21(DE3)pLysS cells
T1 sequence (Q5T1V6 whole entry): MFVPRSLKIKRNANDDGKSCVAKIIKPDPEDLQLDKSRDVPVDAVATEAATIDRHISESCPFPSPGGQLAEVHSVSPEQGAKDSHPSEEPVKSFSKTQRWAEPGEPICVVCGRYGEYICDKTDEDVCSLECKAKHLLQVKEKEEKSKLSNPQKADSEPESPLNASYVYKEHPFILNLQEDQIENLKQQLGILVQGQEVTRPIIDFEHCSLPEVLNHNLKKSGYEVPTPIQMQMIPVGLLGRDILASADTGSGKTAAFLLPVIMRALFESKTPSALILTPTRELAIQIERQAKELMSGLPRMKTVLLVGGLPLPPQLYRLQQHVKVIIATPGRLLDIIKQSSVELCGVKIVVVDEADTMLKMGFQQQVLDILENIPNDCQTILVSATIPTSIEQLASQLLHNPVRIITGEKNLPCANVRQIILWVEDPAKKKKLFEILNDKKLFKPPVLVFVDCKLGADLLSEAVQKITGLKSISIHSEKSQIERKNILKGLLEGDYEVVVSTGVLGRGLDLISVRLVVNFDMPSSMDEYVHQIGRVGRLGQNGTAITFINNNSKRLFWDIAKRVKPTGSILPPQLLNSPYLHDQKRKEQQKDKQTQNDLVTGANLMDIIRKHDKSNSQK

[4] = system: A549; experiment: Downregulation of CyclinE2 mRNA expression in human A549 cells by SYBR dye based RT-PCR analysis; format: functional, cell-based
[5] = system: A549; experiment: Downregulation of E2F1 mRNA expression in human A549 cells by SYBR dye based RT-PCR analysis; format: functional, cell-based
[6] = system: A549; experiment: Downregulation of MCM4 mRNA expression in human A549 cells by SYBR dye based RT-PCR analysis; format: functional, cell-based
[7] = biological target: T2, Probable ATP-dependent RNA helicase DDX6 (Homo sapiens, UniProt P26196); experiment: Inhibition of N-terminal thioredoxin-tagged human recombinant DDX6 transformed in Escherichia coli BL21(DE3)pLysS cells
T2 sequence (P26196 whole entry): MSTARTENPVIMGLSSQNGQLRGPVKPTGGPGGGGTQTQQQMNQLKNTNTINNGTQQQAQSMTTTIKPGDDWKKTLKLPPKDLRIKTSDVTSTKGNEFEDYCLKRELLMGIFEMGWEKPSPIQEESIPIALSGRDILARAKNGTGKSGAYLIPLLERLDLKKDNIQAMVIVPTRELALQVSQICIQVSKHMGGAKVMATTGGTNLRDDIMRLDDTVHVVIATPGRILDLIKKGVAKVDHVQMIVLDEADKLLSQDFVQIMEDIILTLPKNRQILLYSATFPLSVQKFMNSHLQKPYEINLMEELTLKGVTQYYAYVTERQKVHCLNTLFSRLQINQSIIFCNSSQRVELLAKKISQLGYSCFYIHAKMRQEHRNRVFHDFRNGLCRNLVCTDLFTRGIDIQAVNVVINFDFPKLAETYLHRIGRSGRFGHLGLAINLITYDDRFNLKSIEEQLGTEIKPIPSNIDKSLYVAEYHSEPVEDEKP

[8] = biological target: T3, Putative pre-mRNA-splicing factor ATP-dependent RNA helicase DHX32 (Homo sapiens, UniProt Q7L7V1); experiment: Inhibition of N-terminal thioredoxin-tagged human recombinant DHX32 transformed in Escherichia coli BL21(DE3)pLysS cells
T3 sequence (Q7L7V1 whole entry): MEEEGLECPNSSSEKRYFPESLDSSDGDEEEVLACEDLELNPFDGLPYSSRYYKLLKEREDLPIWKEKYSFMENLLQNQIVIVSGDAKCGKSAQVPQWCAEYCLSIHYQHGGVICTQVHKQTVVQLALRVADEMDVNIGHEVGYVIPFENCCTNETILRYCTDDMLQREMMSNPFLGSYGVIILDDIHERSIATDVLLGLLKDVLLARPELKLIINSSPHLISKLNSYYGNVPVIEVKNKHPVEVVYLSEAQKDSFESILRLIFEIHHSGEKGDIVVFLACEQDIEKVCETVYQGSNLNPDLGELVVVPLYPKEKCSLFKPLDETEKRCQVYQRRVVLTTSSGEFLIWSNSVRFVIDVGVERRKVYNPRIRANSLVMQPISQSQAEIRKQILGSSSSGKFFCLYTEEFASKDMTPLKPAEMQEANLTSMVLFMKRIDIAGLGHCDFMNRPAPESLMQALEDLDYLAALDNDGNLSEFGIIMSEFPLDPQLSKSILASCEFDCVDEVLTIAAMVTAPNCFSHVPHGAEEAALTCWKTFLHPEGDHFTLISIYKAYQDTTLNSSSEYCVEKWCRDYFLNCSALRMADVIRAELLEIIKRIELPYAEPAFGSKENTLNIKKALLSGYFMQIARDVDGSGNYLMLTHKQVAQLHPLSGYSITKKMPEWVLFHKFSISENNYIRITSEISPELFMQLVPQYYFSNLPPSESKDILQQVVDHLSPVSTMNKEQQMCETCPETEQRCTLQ

[9] = system: A549; experiment: Downregulation of FEN1 mRNA expression in human A549 cells by SYBR dye based RT-PCR analysis; format: functional, cell-based
[10] = system: A549; experiment: Downregulation of CyclinB2 mRNA expression in human A549 cells by SYBR dye based RT-PCR analysis; format: functional, cell-based
[11] = system: A549; experiment: Downregulation of MCM7 mRNA expression in human A549 cells by SYBR dye based RT-PCR analysis; format: functional, cell-based
[12] = biological target: T4, ATP-dependent RNA helicase DHX33 (Mus musculus, UniProt Q80VY9); experiment: Inhibition of N-terminal/C-terminal 6x His-tagged wild type recombinant mouse DHX33 transformed in Escherichia coli BL21(DE3)pLysS cells
T4 sequence (Q80VY9 whole entry): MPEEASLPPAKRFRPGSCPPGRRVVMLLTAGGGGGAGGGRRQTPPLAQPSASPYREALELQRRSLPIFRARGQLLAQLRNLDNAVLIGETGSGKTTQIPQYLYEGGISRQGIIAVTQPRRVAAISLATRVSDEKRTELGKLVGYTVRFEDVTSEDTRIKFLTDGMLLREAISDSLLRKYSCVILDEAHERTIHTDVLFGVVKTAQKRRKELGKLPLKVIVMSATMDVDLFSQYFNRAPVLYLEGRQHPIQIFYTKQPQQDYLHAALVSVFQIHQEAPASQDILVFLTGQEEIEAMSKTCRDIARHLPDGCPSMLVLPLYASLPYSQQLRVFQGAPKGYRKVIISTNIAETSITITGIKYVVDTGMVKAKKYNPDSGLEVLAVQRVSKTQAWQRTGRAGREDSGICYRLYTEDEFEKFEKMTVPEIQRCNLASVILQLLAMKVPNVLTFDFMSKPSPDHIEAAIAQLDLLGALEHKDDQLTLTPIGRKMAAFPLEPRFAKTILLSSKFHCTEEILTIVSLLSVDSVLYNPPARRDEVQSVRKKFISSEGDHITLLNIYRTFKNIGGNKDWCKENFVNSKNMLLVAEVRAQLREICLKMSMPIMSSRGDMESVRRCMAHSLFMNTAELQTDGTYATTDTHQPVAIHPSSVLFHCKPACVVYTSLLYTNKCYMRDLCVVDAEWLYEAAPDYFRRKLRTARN

[13] = system: A549; experiment: Downregulation of MCM3 mRNA expression in human A549 cells by SYBR dye based RT-PCR analysis; format: functional, cell-based
[14] = Microsomal stability in human liver microsome assessed as intrinsic clearance; format: ADME; details: liver microsomes, read-out: CLH

IC50 [1]	SMILES	also measured
> 10 µM	COc1cccc2nc(/C(C#N)=C/c3cc(C)n(-c4oc(C)c(C)c4C#N)c3C)[nH]c12	
4.08 µM	COc1ccc2nc(/C(C#N)=C/c3cc(C)n(-c4oc(C)c(C)c4C#N)c3C)[nH]c2n1	
2.44 µM	Cc1ccc2nc(/C(C#N)=C/c3cc(C)n(-c4oc(C)c(C)c4C#N)c3C)[nH]c2c1	
0.07 µM	COc1cc2nc(/C(C#N)=C/c3cc(C)n(-c4oc(C)c(C)c4C#N)c3C)[nH]c2cn1	
0.54 µM	COc1ccc2nc(/C(C#N)=C/c3cc(C)n(-c4oc(C)c(C)c4C#N)c3C)[nH]c2c1	
3.2 µM	Cc1oc(-n2c(C)cc(/C=C(\C#N)c3nc4ccc(F)cc4[nH]3)c2C)c(C#N)c1C	

Further lines, the compound ahead of its results:

SMILES	IC50 [1]	also measured
COc1cc2nc(/C(C#N)=C/c3cc(C)n(-c4sc(C)c(C)c4C#N)c3C)[nH]c2cn1	0.03 µM	
Cc1oc(-n2c(C)cc(/C=C(\C#N)c3nc4ccccc4[nH]3)c2C)c(C#N)c1C	7.82 µM	Activity [2]: Active; IC50 [3]: > 5 µM; Activity [4]: Active; Activity [5]: Active; Activity [6]: Active; IC50 [7]: > 4 µM; IC50 [8]: > 5 µM; Activity [9]: Active; Activity [10]: Active; Activity [11]: Active; IC50 [12]: 0.52 µM; Activity [13]: Active
COc1cc2nc(/C(C#N)=C/c3cc(C)n(-c4oc(C)c(C)c4C#N)c3C)[nH]c2cc1OC	1.54 µM	
COc1cc2nc(/C(C#N)=C/c3cc(C)n(-c4sc(C)cc4C(N)=O)c3C)[nH]c2cn1	0.18 µM	CLint scaled [14]: 140 mL/min/kg
COc1cc2nc(/C(C#N)=C/c3cc(C)n(-c4sc(C)cc4C#N)c3C)[nH]c2cn1	0.02 µM	CLint scaled [14]: 187 mL/min/kg
COc1cncc2nc(/C(C#N)=C/c3cc(C)n(-c4sc(C)c(C)c4C#N)c3C)[nH]c12	4.68 µM	
COc1ccc2nc(/C(C#N)=C/c3cc(C)n(-c4sc(C)cc4C#N)c3C)[nH]c2c1	0.11 µM	CLint scaled [14]: 290 mL/min/kg
COc1nccc2nc(/C(C#N)=C/c3cc(C)n(-c4sc(C)c(C)c4C#N)c3C)[nH]c12	3.97 µM	
COc1ccc2nc(NC(=O)c3cc(C)n(-c4oc(C)nc4C#N)c3C)[nH]c2c1	0.07 µM	
